In PubChem BioAssay AID1745844 (Carcinogenic Potency Database (CPDB), 2022) one finds TD50 and carcinogen call data, which are given here for 6 compounds.

Several values for one entry are separate records, joined by “and”; a condition that tells them apart may be missing. Equal values may be shown once. Activity calls are given as the source filed them. The rule behind the calls is not given here.

This data set deals with rodent lifetime carcinogenesis bioassay, tumor incidence TD50. Put plainly: chronic cancer bioassays in animals – CPDB, compiled studies (AID 1745844).

With `c1ccoc1`, the TD50 – broadly, the 50% point of the dose-response relation for the toxic effect studied – was 2.26 mg/kg/day (mouse, strain B6C3F1, females, by gavage, site: adrenal medulla + liver, lesion: pheochromocytoma, benign + hepatocellular adenoma + hepatocellular carcinoma, dosed 104 weeks, study length 105 weeks); 36 mg/kg/day (mouse, strain B6C3F1, females, by gavage, site: adrenal medulla, lesion: pheochromocytoma, benign, dosed 104 weeks, study length 105 weeks); 2.81 mg/kg/day (mouse, strain B6C3F1, females, by gavage, site: any site (literature study), lesion: several types, types named in the paper, dosed 104 weeks, study length 105 weeks); 23.8 mg/kg/day (mouse, strain B6C3F1, females, by gavage, site: forestomach, lesion: squamous-cell papilloma, dosed 104 weeks, study length 105 weeks); 6.85 mg/kg/day (mouse, strain B6C3F1, females, by gavage, site: liver, lesion: carcinoma + hepatocellular carcinoma, dosed 104 weeks, study length 105 weeks); 2.19 mg/kg/day (mouse, strain B6C3F1, females, by gavage, site: liver, lesion: hepatocellular adenoma + hepatocellular carcinoma + neoplastic nodule, dosed 104 weeks, study length 105 weeks). The TD50 is 2.19 mg/kg/day (mouse, strain B6C3F1, females, by gavage, site: liver, lesion: hepatocellular adenoma + hepatocellular carcinoma, dosed 104 weeks, study length 105 weeks); 2.26 mg/kg/day (mouse, strain B6C3F1, females, by gavage, site: liver, lesion: hepatocellular adenoma, dosed 104 weeks, study length 105 weeks); 38.5 mg/kg/day (mouse, strain B6C3F1, females, by gavage, site: lung, lesion: alveolar/bronchiolar adenoma + alveolar/bronchiolar carcinoma, dosed 104 weeks, study length 105 weeks); 3.6 mg/kg/day (mouse, strain B6C3F1, males, by gavage, site: adrenal medulla + liver, lesion: pheochromocytoma, benign + hepatocellular adenoma + hepatocellular carcinoma, dosed 104 weeks, study length 105 weeks); 20.1 mg/kg/day (mouse, strain B6C3F1, males, by gavage, site: adrenal medulla, lesion: pheochromocytoma, benign, dosed 104 weeks, study length 105 weeks); 5.43 mg/kg/day (mouse, strain B6C3F1, males, by gavage, site: any site (literature study), lesion: several types, types named in the paper, dosed 104 weeks, study length 105 weeks). The TD50 runs as follows: (mouse, strain B6C3F1, males, by gavage, site: forestomach, lesion: squamous-cell papilloma, dosed 104 weeks, study length 105 weeks) 64.6 mg/kg/day; (mouse, strain B6C3F1, males, by gavage, site: liver, lesion: hepatocellular adenoma + hepatocellular carcinoma + neoplastic nodule, dosed 104 weeks, study length 105 weeks) 3.6 mg/kg/day; (mouse, strain B6C3F1, males, by gavage, site: liver, lesion: hepatocellular adenoma + hepatocellular carcinoma, dosed 104 weeks, study length 105 weeks) 3.6 mg/kg/day; (mouse, strain B6C3F1, males, by gavage, site: liver, lesion: hepatocellular adenoma, dosed 104 weeks, study length 105 weeks) 4.02 mg/kg/day; (mouse, strain B6C3F1, males, by gavage, site: liver, lesion: hepatocellular carcinoma, dosed 104 weeks, study length 105 weeks) 5.13 mg/kg/day; (mouse, strain B6C3F1, males, by gavage, site: lung, lesion: alveolar/bronchiolar adenoma + alveolar/bronchiolar carcinoma, dosed 104 weeks, study length 105 weeks) 21.5 mg/kg/day. For the same compound, the TD50 is 18.2 mg/kg/day (mouse, strain B6C3F1, males, by gavage, site: lung, lesion: alveolar/bronchiolar adenoma, dosed 104 weeks, study length 105 weeks); 11 mg/kg/day (mouse, strain B6C3F1, males, by gavage, site: multiple organs, lesion: malignant lymphoma, histiocytic type + malignant lymphoma, mixed type, dosed 104 weeks, study length 105 weeks); 2.83 mg/kg/day (rat, strain Fischer 344, females, by gavage, site: any site (literature study), lesion: several types, types named in the paper, dosed 103 weeks, study length 104 weeks); 0.543 mg/kg/day (rat, strain Fischer 344, females, by gavage, site: liver + multiple organs, lesion: cholangiocarcinoma + hepatocellular adenoma + hepatocellular carcinoma + mononuclear-cell leukemia, dosed 103 weeks, study length 104 weeks); 0.395 mg/kg/day (rat, strain Fischer 344, females, by gavage, site: liver, lesion: cholangiocarcinoma, dosed 103 weeks, study length 104 weeks); 11.2 mg/kg/day (rat, strain Fischer 344, females, by gavage, site: liver, lesion: hepatocellular adenoma + hepatocellular carcinoma + neoplastic nodule, dosed 103 weeks, study length 104 weeks). Also, the TD50 runs as follows: (rat, strain Fischer 344, females, by gavage, site: liver, lesion: hepatocellular adenoma + hepatocellular carcinoma, dosed 103 weeks, study length 104 weeks) 11.2 mg/kg/day; (rat, strain Fischer 344, females, by gavage, site: liver, lesion: hepatocellular adenoma, dosed 103 weeks, study length 104 weeks) 11.8 mg/kg/day; (rat, strain Fischer 344, females, by gavage, site: multiple organs, lesion: mononuclear-cell leukemia, dosed 103 weeks, study length 104 weeks) 5.84 mg/kg/day; (rat, strain Fischer 344, females, by gavage, site: urinary bladder, lesion: transitional-cell papilloma, dosed 103 weeks, study length 104 weeks) 50.7 mg/kg/day; (rat, strain Fischer 344, males, by gavage, site: adrenal medulla, lesion: pheochromocytoma, benign, dosed 103 weeks, study length 104 weeks) 12.7 mg/kg/day; (rat, strain Fischer 344, males, by gavage, site: any site (literature study), lesion: several types, types named in the paper, dosed 103 weeks, study length 104 weeks) 1.96 mg/kg/day. The TD50 is 0.529 mg/kg/day (rat, strain Fischer 344, males, by gavage, site: liver + multiple organs, lesion: cholangiocarcinoma + hepatocellular adenoma + hepatocellular carcinoma + mononuclear-cell leukemia, dosed 103 weeks, study length 104 weeks); 0.398 mg/kg/day (rat, strain Fischer 344, males, by gavage, site: liver, lesion: cholangiocarcinoma, dosed 103 weeks, study length 104 weeks); 2.31 mg/kg/day (rat, strain Fischer 344, males, by gavage, site: liver, lesion: hepatocellular adenoma + hepatocellular carcinoma + neoplastic nodule, dosed 103 weeks, study length 104 weeks); 2.31 mg/kg/day (rat, strain Fischer 344, males, by gavage, site: liver, lesion: hepatocellular adenoma + hepatocellular carcinoma, dosed 103 weeks, study length 104 weeks); 3.1 mg/kg/day (rat, strain Fischer 344, males, by gavage, site: liver, lesion: hepatocellular adenoma, dosed 103 weeks, study length 104 weeks); 6.18 mg/kg/day (rat, strain Fischer 344, males, by gavage, site: liver, lesion: hepatocellular carcinoma, dosed 103 weeks, study length 104 weeks). Moreover, the TD50 runs as follows: (rat, strain Fischer 344, males, by gavage, site: multiple organs, lesion: mononuclear-cell leukemia, dosed 103 weeks, study length 104 weeks) 4.64 mg/kg/day; (rat, strain Fischer 344, males, by gavage, site: preputial gland, lesion: adenoma + adenoma, bilateral, dosed 103 weeks, study length 104 weeks) 21.5 mg/kg/day; (rat, strain Fischer 344, males, by gavage, site: skin, lesion: keratoacanthoma, dosed 103 weeks, study length 104 weeks) 16.4 mg/kg/day; (rat, strain Fischer 344, males, by gavage, site: subcutaneous tissue, lesion: fibroma, dosed 103 weeks, study length 104 weeks) 18.1 mg/kg/day; (rat, strain Fischer 344, males, by gavage, site: testis, lesion: interstitial-cell adenoma, dosed 103 weeks, study length 104 weeks) 3.14 mg/kg/day.

`S=C=NCCCCCCc1ccccc1`: the carcinogen call was “negative (inactive)” (rat, strain Fischer 344, males, in feed, site: colon, lesion: one or several types, types not named, dosed 55 weeks, study length 55 weeks); “negative (inactive)” (rat, strain Fischer 344, males, in feed, site: liver, lesion: hepatocellular adenoma, dosed 112 weeks, study length 112 weeks); “negative (inactive)” (rat, strain Fischer 344, males, in feed, site: liver, lesion: hepatocellular carcinoma, dosed 112 weeks, study length 112 weeks); “negative (inactive)” (rat, strain Fischer 344, males, in feed, site: pancreas, exocrine, lesion: acinar-cell adenoma, dosed 112 weeks, study length 112 weeks); “negative (inactive)” (rat, strain Fischer 344, males, in feed, site: pancreatic islets, lesion: islet-cell adenoma, dosed 112 weeks, study length 112 weeks).

On to `CC(=O)Nc1nc(-c2ccc([N+](=O)[O-])o2)cs1`, for which the TD50 by setting is: (hamster, strain Syrian Golden, males, in feed, site: forestomach, lesion: squamous-cell papilloma, dosed 48 weeks, study length 70 weeks) 68.1 mg/kg/day; (hamster, strain Syrian Golden, males, in feed, site: urinary bladder, lesion: several types, types named in the paper, dosed 48 weeks, study length 70 weeks) 8.91 mg/kg/day; (hamster, strain Syrian Golden, males, in feed, site: urinary bladder, lesion: squamous-cell carcinoma, dosed 48 weeks, study length 70 weeks) 60.2 mg/kg/day; (rat, strain Sprague-Dawley, females, in feed, site: kidney/pelvis, lesion: transitional-cell carcinoma, dosed 46 weeks, study length 66 weeks) 316 mg/kg/day and 660 mg/kg/day; (rat, strain Sprague-Dawley, females, in feed, site: mammary gland, lesion: adenocarcinoma, dosed 46 weeks, study length 66 weeks) 36.2 mg/kg/day; (rat, strain Sprague-Dawley, females, in feed, site: mammary gland, lesion: fibroadenoma, dosed 46 weeks, study length 66 weeks) 56.9 mg/kg/day and 25 mg/kg/day and 30.2 mg/kg/day. Besides, the TD50 (rat, strain Sprague-Dawley, females, in feed, site: mammary tissue, wider than the gland, lesion: several types, types named in the paper, dosed 46 weeks, study length 66 weeks) was 10.5 mg/kg/day.

In the case of `NC(=O)CCCCC(N)=O`, the carcinogen call is “negative (inactive)” (mouse, strain C57BL/6, females, in feed, site: liver, lesion: hepatocellular carcinoma, dosed 52 weeks, study length 69 weeks); “negative (inactive)” (mouse, strain C57BL/6, males, in feed, site: liver, lesion: hepatocellular carcinoma, dosed 52 weeks, study length 69 weeks); “negative (inactive)” (mouse, strain C57BL/6, males, in feed, site: lung, lesion: alveolar/bronchiolar adenoma, dosed 52 weeks, study length 69 weeks); “negative (inactive)” (rat, strain Fischer 344, females, in feed, site: liver, lesion: one or several types, types not named, dosed 52 weeks, study length 69 weeks). The TD50 by setting is: (mouse, strain C57BL/6, females, in feed, site: lung, lesion: alveolar/bronchiolar adenoma, dosed 52 weeks, study length 69 weeks) 8550 mg/kg/day (inactive); (rat, strain Fischer 344, males, in feed, site: liver, lesion: hepatocellular carcinoma, dosed 52 weeks, study length 69 weeks) 6420 mg/kg/day.

Regarding `Cc1c(N)cccc1N`, the TD50 by setting is: (mouse, strain B6C3F1, females, in feed, site: any site (literature study), lesion: several types, types named in the paper, dosed 103 weeks, study length 105 weeks) 75.9 mg/kg/day; (mouse, strain B6C3F1, females, in feed, site: liver, lesion: hepatocellular adenoma + hepatocellular carcinoma + neoplastic nodule, dosed 103 weeks, study length 105 weeks) 129 mg/kg/day; (mouse, strain B6C3F1, females, in feed, site: liver, lesion: hepatocellular carcinoma, dosed 103 weeks, study length 105 weeks) 181 mg/kg/day (inactive); (mouse, strain B6C3F1, males, in feed, site: all sites, lesion: lymphoma, dosed 103 weeks, study length 104 weeks) 20.5 mg/kg/day (inactive); (rat, strain Fischer 344, females, in feed, site: liver, lesion: hepatocellular adenoma + hepatocellular carcinoma + neoplastic nodule, dosed 103 weeks, study length 105 weeks) 455 mg/kg/day; (rat, strain Fischer 344, males, in feed, site: liver, lesion: hepatocellular adenoma + hepatocellular carcinoma + neoplastic nodule, dosed 103 weeks, study length 104 weeks) 117 mg/kg/day. In addition, the TD50 reads like this: (rat, strain Fischer 344, males, in feed, site: liver, lesion: hepatocellular carcinoma + neoplastic nodule, dosed 103 weeks, study length 104 weeks) 117 mg/kg/day (inactive); (rat, strain Fischer 344, males, in feed, site: pancreatic islets, lesion: islet-cell adenoma, dosed 103 weeks, study length 104 weeks) 140 mg/kg/day. The carcinogen call (rat, strain Fischer 344, females, in feed, site: any site (literature study), lesion: several types, types named in the paper, dosed 103 weeks, study length 105 weeks) is “negative (inactive)”.

For the compound `CC1CN(N=O)C(=O)NC1=O` (configuration not stated), the carcinogen call (rat, strain MRC-Wistar, females, in drinking water, site: any site (literature study), lesion: several types, types named in the paper, dosed 52 weeks, study length 127 weeks) is “negative (inactive)”; the carcinogen call (rat, strain MRC-Wistar, males, in drinking water, site: any site (literature study), lesion: several types, types named in the paper, dosed 52 weeks, study length 127 weeks) is “negative (inactive)”; the carcinogen call (rat, strain MRC-Wistar, males, in drinking water, site: liver, lesion: one or several types, types not named, dosed 52 weeks, study length 127 weeks) was “negative (inactive)”. Where the note is “rat, strain MRC-Wistar, females, in drinking water, site: liver, lesion: several types, types named in the paper, dosed 52 weeks, study length 127 weeks”, this compound had a TD50 of 31.2 mg/kg/day.
